# Laboratory results taken from patent US5608095A, “Alkyl-4-silyl-phenols and esters thereof as antiatherosclerotic agents” (Hoechst Marion Roussel, Inc., priority 1996, dated 1997).
# Like-named read-outs stand apart in the source and are kept apart here.
# Tests used:
# [1] = Solubility in solvent for spraying on chow; assay type: physicochemical
# Method: (§1) Five independent experiments were performed in the following manner. […] Female New Zealand White rabbits (Hazelton, ~2.0-2.3 kg) were fed 0.2% cholesterol enriched rabbit chow (Purina #5322) with or without 0.4% MDL compound (except, MDL 108,804 at 0.26% and MDL 103,491 repeated at 0.6%). The MDL compounds were solubilized in 100% ethanol. MDL 108,208 was not soluble in 100% ethanol, but it was soluble in diethyl ether:ethanol (3:2 by volume). The chow was sprayed with the MDL mixtures and allowed to dry overnight in a chemical fume hood. Control chow was sprayed with ethanol. Rabbits were fed 100 grams food per day for 7 days (0.6% MDL 103,491 were fed for 14 days); water was available ad libitum. On day 7, rabbits (fasted overnight) were bled (~2 mL) from marginal ear vein; 0.6% MDL 103,491 treated rabbits were tested on day 14. They were euthanized by carbon dioxide overdose. The total body and liver weights were recorded in grams. Food consumption was recorded as grams.cndot.day^-1 .cndot.rabbit^-1. Aliquots of fresh serum were used for clinical chemistries, lipoprotein cholesterol determination, thiobarbituric acid reactive substances (TBARS) and compound and metabolite concentrations in serum. Livers (~5 gram aliquots) were frozen at -20° C. for compound and metabolite concentration determination at a later time.
# [2] = test system: oxidation of serum lipids; test: TBARS assay, serum of cholesterol-fed rabbits; assay type: in vivo, female New Zealand White rabbits; conditions: Oryctolagus cuniculus, po, 168 h; rabbit serum, diet 0.4%, 7 days; read-out: TBARS, percent of control
# Method: as §1
# TBARS are a qualitative indication of the oxidation of lipids in a sample. In this assay the oxidation of serum lipids is initiated with CuSO4, resulting in the formation of aldehydes, such as malondialdehyde (MDA). Upon incubation with thiobarbituric acid, the absorbance of the aldehydes can be detected at 530-540 nm. TBARS values which are lower than control serum values indicate the relative ability of a compound to inhibit the oxidation. TBARS were measured as follows: 50 μL of serum were mixed with 50 μL of 0.9% saline and 400 μL of a 5 mM CuSO4 solution and incubated at 37° C. for 5 hr. The reactions were stopped by addition of 1.0 mL of 20% trichloroacetic acid. Then 1.0 mL of 0.67% thiobarbituric acid in 0.05N sodium hydroxide was added, mixed, and the samples incubated for 30 min at 90° C. Samples were centrifuged briefly to pellet undissolved material, and the supernatants were transferred to a 96-well microtiter plate. Absorbances were measured at 540 nm using a Biotek model EL311 microplate reader. The nmoles of MDA produced were calculated from a standard curve of 0 to 10 nmoles of MDA prepared from malonaldehyde bis(dimethylacetal). Serum samples from treated rabbits were compared to serum samples from control rabbits that received no MDL compound.
# [3] = HPLC quantitation of compound and metabolite concentration in rabbit serum and liver; assay type: in vivo, female New Zealand White rabbits; conditions: diet 0.4%, 7 days
# Method: as §1
# Serum and liver concentrations of parent compounds and the metabolites, bisphenol and diphenoquinone, were determined by reverse phase HPLC using a Waters 990 Powerline system. Livers (1 gram) were homogenized with 5.0 mL PBS, pH 7.4, using a Polytron tissue homogenizer at setting 5 for 20-30 seconds. Serum or liver homogenates were extracted as follows: 100 μL of either serum or homogenate were added to 2.0 mL diethyl ether:ethanol (3:1) while vortexing the tube. The sample tubes were capped and centrifuged for 10 min at 5° C. at 3500 rpm in a Beckman GPKR centrifuge with a GH 3.7 rotor. The supernatants were transferred to clean tubes and dried under N2. Samples were reconstituted with 200 μL of acetonitrile:hexane:0.1M ammonium acetate (90:6.5:3.5, by vol.). Then, 100 μL were injected onto a Waters Deltapak C18-300 Å column, and eluted with an 83% acetonitrile:17% water mobile phase at a flow rate of 1.5 mL/min. Absrobances at the wavelengths of 240, 254, and 420 nm were recorded. Compound concentrations were calculated from known quantities of authentic parent compounds after correction for recovery; the range of recovery from spiked samples was 40 to 100%. The lowest detectable limit for this class of compounds was ~0.5 μg/mL. Concentrations were calculated as μg/mL of serum and μg/g of liver.
# [4] = Food consumption, body and liver weight in cholesterol-fed rabbits; assay type: in vivo, female New Zealand White rabbits; conditions: diet 0.4%, 7 days
# Method: as §1
# [5] = test system: serum cholesterol, LDL, HDL, triglycerides; test: Serum lipids and lipoprotein cholesterol in cholesterol-fed female New Zealand White rabbits; assay type: in vivo; conditions: Oryctolagus cuniculus, po, 168 h, rabbit serum, diet 0.4%, 7 days
# Method: as §1
# Blood was allowed to clot at room temperature for 30 minutes. Serum was obtained after centrifugation for 10 min at 5° C. at 3000 rpm in a Beckman GPKR centrifuge with a GH rotor. Fresh serum was analyzed by a COBAS MIRA autoanalyzer (Roche Diagnostics) using Roche diagnostic reagents for total cholesterol (CHOL, kit #44334) and triglyceride (TG, kit #44120). Cholesterol and triglycerides were calculated as mg/dL.
# Lipoprotein fractions (very low density lipoprotein, VLDL, low density lipoprotein, LDL and high density lipoprotein, HDL) were separated on a Sepharose 6HR column (1×30 cm, Pharmacia) attached to a Waters Powerline HPLC system. Fifty μL of serum were injected onto the column and eluted with phosphate buffered saline, pH 7.4, at a flow rate of 0.5 mL/min. Cholesterol reagent (Roche Diagnostics, kit #44334, diluted with 20 mL water and then with 20 mL of 0.9% saline) was added at 0.2 mL/min to the post column eluant and incubated in a knitted PFTE Kratos reaction coil (Applied Biosystems) at 37° C. for 5 min. Absorbance was measured at 500 nm. The lipoprotein subfractions were quantitated as follows: [formula]
smiles,measurement,setting,value
"COc1ccc([Si](C)(COc2cc(C(C)(C)C)c(O)c(C(C)(C)C)c2)c2ccc(OC)cc2)cc1 [MDL 108,208]",solubility in 100% ethanol,[1]; 100% ethanol,not soluble
same,solubility in diethyl ether:ethanol,[1]; diethyl ether:ethanol (3:2 by volume),soluble
same,response vs control in vivo at 0.4 %,[2],89%
same,Liver Parent = parent compound concentration,[3]; rabbit liver,0 µg/g
same,Serum Parent = parent compound concentration,[3]; rabbit serum,0 µg/mL
same,"food (grams eaten per day per rabbit), percent of control",[4],100%
same,"body wt., percent of control",[4]; rabbit,97%
same,"lw/bw (liver weight/body weight), percent of control",[4]; rabbit,103%
same,response vs control in vivo at 0.4 %,"[5]; read-out: HDL cholesterol, percent of control",97%
same,response vs control in vivo at 0.4 %,"[5]; read-out: LDL cholesterol, percent of control",117%
same,response vs control in vivo at 0.4 %,"[5]; read-out: TRIG (triglycerides), percent of control",107%
same,response vs control in vivo at 0.4 %,"[5]; read-out: chol tot. (total cholesterol), percent of control",109%
